Where two headings read alike, the source gives them in different places.
Experiments:
Assay in all cases: Glasshouse assay for herbicidal activity (pre- and post-emergence), percentage phytotoxicity
Type in all cases: in vivo
[1] = test system: Echinochloa crus-galli (ECHCG); conditions: Echinochloa crus-galli
Description: (§1) Test—Glasshouse Assay for Herbicidal Activity
(§2) Seeds of a variety of monocotyledonous and dicotyledonous test plants are sown in standard soil in pots. The plants are cultivated for one day (for pre-emergence (PRE)) or for about 12 days (for post-emergence (POST)) under controlled conditions in a glasshouse (warm climate species at 24/18° C., cool climate species at 20/16° C., both at day/night; 16 hours light; 65% humidity).
(§3) The test plants are then grown on, in a glasshouse (greenhouse) under controlled conditions (warm climate species at 24/18° C., cool climate species at 20/16° C., both at day/night; 16 hours light; 65% humidity) and are watered twice daily. 15 days after application of the test herbicide (15 DAA) (for post-emergence), and 20 days after application of the test herbicide (20 DAA) (for pre-emergence), the test plants are evaluated visually, and an assessed percentage phytotoxicity score is given for each herbicidal application on each plant species (with 100%=total damage to plant; 0%=no damage to plant).
(§4) The plant species tested are as follows: Alopecurus myosuroides (ALOMY), Avena fatua (AVEFA), Lolium perenne (LOLPE), Echinochloa crus-galli (ECHCG).

[2] = test system: Alopecurus myosuroides (ALOMY); conditions: Alopecurus myosuroides
Description: as §1, §2, §3, §4

Lolium perenne (LOLPE) = conditions: Lolium perenne
Description: as §1, §2, §3, §4

Avena fatua (AVEFA) = conditions: Avena fatua
Description: as §1, §2, §3, §4

[3] = post-emergence, 360 h, POST-emergence, rate 250 g/ha, visual score 15 DAA (100%=total damage, 0%=no damage), read-out: Post-emergence herbicidal activity (percentage phytotoxicity) ECHCG POST
[4] = pre-emergence, 480 h, PRE-emergence, rate 250 g/ha, visual score 20 DAA (100%=total damage, 0%=no damage), read-out: Pre-emergence herbicidal activity (percentage phytotoxicity) ECHCG PRE
[5] = post-emergence, 360 h, POST-emergence, rate 250 g/ha, visual score 15 DAA (100%=total damage, 0%=no damage), read-out: Post-emergence herbicidal activity (percentage phytotoxicity) ALOMY POST
[6] = pre-emergence, 480 h, PRE-emergence, rate 250 g/ha, visual score 20 DAA (100%=total damage, 0%=no damage), read-out: Pre-emergence herbicidal activity (percentage phytotoxicity) ALOMY PRE
[7] = post-emergence, 360 h, POST-emergence, rate 250 g/ha, visual score 15 DAA (100%=total damage, 0%=no damage), read-out: Post-emergence herbicidal activity (percentage phytotoxicity) LOLPE POST
[8] = pre-emergence, 480 h, PRE-emergence, rate 250 g/ha, visual score 20 DAA (100%=total damage, 0%=no damage), read-out: Pre-emergence herbicidal activity (percentage phytotoxicity) LOLPE PRE
[9] = post-emergence, 360 h, POST-emergence, rate 250 g/ha, visual score 15 DAA (100%=total damage, 0%=no damage), read-out: Post-emergence herbicidal activity (percentage phytotoxicity) AVEFA POST
[10] = pre-emergence, 480 h, PRE-emergence, rate 250 g/ha, visual score 20 DAA (100%=total damage, 0%=no damage), read-out: Pre-emergence herbicidal activity (percentage phytotoxicity) AVEFA PRE
[11] = post-emergence, 360 h, Rate 250 g/ha, post-emergence, assessed visually 15 DAA, 100%=total damage, 0%=no damage, read-out: Post-emergence herbicidal activity (percentage phytotoxicity) ECHCG POST
[12] = pre-emergence, 480 h, Rate 250 g/ha, pre-emergence, assessed visually 20 DAA, 100%=total damage, 0%=no damage, read-out: Pre-emergence herbicidal activity (percentage phytotoxicity) ECHCG PRE
[13] = post-emergence, 360 h, Rate 250 g/ha, post-emergence, assessed visually 15 DAA, 100%=total damage, 0%=no damage, read-out: Post-emergence herbicidal activity (percentage phytotoxicity) ALOMY POST
[14] = pre-emergence, 480 h, Rate 250 g/ha, pre-emergence, assessed visually 20 DAA, 100%=total damage, 0%=no damage, read-out: Pre-emergence herbicidal activity (percentage phytotoxicity) ALOMY PRE
[15] = post-emergence, 360 h, Rate 250 g/ha, post-emergence, assessed visually 15 DAA, 100%=total damage, 0%=no damage, read-out: Post-emergence herbicidal activity (percentage phytotoxicity) LOLPE POST
[16] = pre-emergence, 480 h, Rate 250 g/ha, pre-emergence, assessed visually 20 DAA, 100%=total damage, 0%=no damage, read-out: Pre-emergence herbicidal activity (percentage phytotoxicity) LOLPE PRE
[17] = post-emergence, 360 h, Rate 250 g/ha, post-emergence, assessed visually 15 DAA, 100%=total damage, 0%=no damage, read-out: Post-emergence herbicidal activity (percentage phytotoxicity) AVEFA POST
[18] = pre-emergence, 480 h, Rate 250 g/ha, pre-emergence, assessed visually 20 DAA, 100%=total damage, 0%=no damage, read-out: Pre-emergence herbicidal activity (percentage phytotoxicity) AVEFA PRE
[19] = post-emergence, 360 h, 250 g/ha, post-emergence, 15 DAA, visual assessment (100%=total damage, 0%=no damage), read-out: Post-emergence herbicidal activity (percentage phytotoxicity) ECHCG POST
[20] = pre-emergence, 480 h, 250 g/ha, pre-emergence, 20 DAA, visual assessment (100%=total damage, 0%=no damage), read-out: Pre-emergence herbicidal activity (percentage phytotoxicity) ECHCG PRE
[21] = post-emergence, 360 h, 250 g/ha, post-emergence, 15 DAA, visual assessment (100%=total damage, 0%=no damage), read-out: Post-emergence herbicidal activity (percentage phytotoxicity) ALOMY POST
[22] = pre-emergence, 480 h, 250 g/ha, pre-emergence, 20 DAA, visual assessment (100%=total damage, 0%=no damage), read-out: Pre-emergence herbicidal activity (percentage phytotoxicity) ALOMY PRE
[23] = post-emergence, 360 h, 250 g/ha, post-emergence, 15 DAA, visual assessment (100%=total damage, 0%=no damage), read-out: Post-emergence herbicidal activity (percentage phytotoxicity) LOLPE POST
[24] = pre-emergence, 480 h, 250 g/ha, pre-emergence, 20 DAA, visual assessment (100%=total damage, 0%=no damage), read-out: Pre-emergence herbicidal activity (percentage phytotoxicity) LOLPE PRE
[25] = post-emergence, 360 h, 250 g/ha, post-emergence, 15 DAA, visual assessment (100%=total damage, 0%=no damage), read-out: Post-emergence herbicidal activity (percentage phytotoxicity) AVEFA POST
[26] = pre-emergence, 480 h, 250 g/ha, pre-emergence, 20 DAA, visual assessment (100%=total damage, 0%=no damage), read-out: Pre-emergence herbicidal activity (percentage phytotoxicity) AVEFA PRE

SMILES	pest or weed control at 250 g/ha [1, 3] [%]	pest or weed control at 250 g/ha [1, 4] [%]	pest or weed control at 250 g/ha [2, 5] [%]	pest or weed control at 250 g/ha [2, 6] [%]	pest or weed control at 250 g/ha (Lolium perenne (LOLPE); [7]) [%]	pest or weed control at 250 g/ha (Lolium perenne (LOLPE); [8]) [%]	pest or weed control at 250 g/ha (Avena fatua (AVEFA); [9]) [%]	pest or weed control at 250 g/ha (Avena fatua (AVEFA); [10]) [%]	pest or weed control at 250 g/ha [1, 19] [%]	pest or weed control at 250 g/ha [1, 20] [%]	pest or weed control at 250 g/ha [2, 21] [%]	pest or weed control at 250 g/ha [2, 22] [%]	pest or weed control at 250 g/ha (Lolium perenne (LOLPE); [23]) [%]	pest or weed control at 250 g/ha (Lolium perenne (LOLPE); [24]) [%]	pest or weed control at 250 g/ha (Avena fatua (AVEFA); [25]) [%]	pest or weed control at 250 g/ha (Avena fatua (AVEFA); [26]) [%]	further results
C#Cc1cc(-c2ncc(F)cc2F)cc(C)c1C1C(=O)CC(CC(=O)NC(C)(C)C)C1=O (centres unmarked) [Compound B381, N-tert-butyl-2-[3-[4-(3,5-difluoro-2-pyridyl)-2-ethynyl-6-methyl-phenyl]-2,4-dioxo-cyclopentyl]acetamide]																	pest or weed control at 250 g/ha ([1]; post-emergence, 360 h, Rate 250 g/ha, post-emergence, visual assessment 15 DAA, 100%=total damage, 0%=no damage, read-out: Post-emergence herbicidal activity (percentage phytotoxicity) ECHCG POST): 100%; pest or weed control at 250 g/ha ([1]; pre-emergence, 480 h, Rate 250 g/ha, pre-emergence, visual assessment 20 DAA, 100%=total damage, 0%=no damage, read-out: Pre-emergence herbicidal activity (percentage phytotoxicity) ECHCG PRE): 70%; pest or weed control at 250 g/ha ([2]; post-emergence, 360 h, Rate 250 g/ha, post-emergence, visual assessment 15 DAA, 100%=total damage, 0%=no damage, read-out: Post-emergence herbicidal activity (percentage phytotoxicity) ALOMY POST): 100%; pest or weed control at 250 g/ha ([2]; pre-emergence, 480 h, Rate 250 g/ha, pre-emergence, visual assessment 20 DAA, 100%=total damage, 0%=no damage, read-out: Pre-emergence herbicidal activity (percentage phytotoxicity) ALOMY PRE): 70%; pest or weed control at 250 g/ha (Lolium perenne (LOLPE); post-emergence, 360 h, Rate 250 g/ha, post-emergence, visual assessment 15 DAA, 100%=total damage, 0%=no damage, read-out: Post-emergence herbicidal activity (percentage phytotoxicity) LOLPE POST): 100%; pest or weed control at 250 g/ha (Lolium perenne (LOLPE); pre-emergence, 480 h, Rate 250 g/ha, pre-emergence, visual assessment 20 DAA, 100%=total damage, 0%=no damage, read-out: Pre-emergence herbicidal activity (percentage phytotoxicity) LOLPE PRE): 90%; pest or weed control at 250 g/ha (Avena fatua (AVEFA); post-emergence, 360 h, Rate 250 g/ha, post-emergence, visual assessment 15 DAA, 100%=total damage, 0%=no damage, read-out: Post-emergence herbicidal activity (percentage phytotoxicity) AVEFA POST): 100%; pest or weed control at 250 g/ha (Avena fatua (AVEFA); pre-emergence, 480 h, Rate 250 g/ha, pre-emergence, visual assessment 20 DAA, 100%=total damage, 0%=no damage, read-out: Pre-emergence herbicidal activity (percentage phytotoxicity) AVEFA PRE): 70%
CCc1cc(OCC(F)(F)F)cc(C)c1C1C(=O)CC(CC(=O)N(C)C(C)(C)C)C1=O (centres unmarked) [Compound B221]	100	100	100	100	100	100	100	100									
Cc1cc(C)c(C2C(=O)CC(CC(=O)NC(C)c3ccc(F)cc3)C2=O)c(C)c1 (centres unmarked) [Compound A93]																	pest or weed control at 250 g/ha [1, 11]: 70%; pest or weed control at 250 g/ha [1, 12]: 60%; pest or weed control at 250 g/ha [2, 13]: 100%; pest or weed control at 250 g/ha [2, 14]: 90%; pest or weed control at 250 g/ha (Lolium perenne (LOLPE); [15]): 80%; pest or weed control at 250 g/ha (Lolium perenne (LOLPE); [16]): 90%; pest or weed control at 250 g/ha (Avena fatua (AVEFA); [17]): 40%; pest or weed control at 250 g/ha (Avena fatua (AVEFA); [18]): 20%
Cc1cc(-c2ncc(F)cc2C#N)cc(C)c1C1C(=O)CC(CC(=O)NC(C)(C)C)C1=O (centres unmarked) [Compound B87]									80	20	70	40	80	70	30	10	
Cc1cc(C)c(C2C(=O)CC(CC(=O)NCC3CC3C(F)F)C2=O)c(C)c1 (centres unmarked) [Compound B60]									90	90	80	90	80	80	80	60	
COCCN(CCOC)C(=O)CC1CC(=O)C(c2c(C)cc(-c3ncc(F)cn3)cc2C)C1=O (centres unmarked) [Compound B281]	100	100	100	80	90	80	100	80									
Cc1cc(-c2ncc(Cl)cc2F)cc(C)c1C1C(=O)CC(CC(=O)NCC2CC2(Cl)Cl)C1=O (centres unmarked) [Compound B160]									100	100	100	90	100	90	100	80	
C/C=C/c1cc(C)c(C2C(=O)CC(CC(=O)N(C)C(C)(C)C)C2=O)c(C)c1 (centres unmarked) [Compound B249]	80	80	70	80	60	70	70	30									
COC(=O)c1cccc(CNC(=O)CC2CC(=O)C(c3c(C)cc(C)cc3C)C2=O)c1 (centres unmarked) [Compound B10]									70	0	30	0	30	0	70	0	
Cc1cc(C)c(C2C(=O)CC(C(C)C(=O)NCc3cccs3)C2=O)c(C)c1 (centres unmarked) [Compound A165]																	pest or weed control at 250 g/ha [1, 11]: 90%; pest or weed control at 250 g/ha [1, 12]: 100%; pest or weed control at 250 g/ha [2, 13]: 60%; pest or weed control at 250 g/ha [2, 14]: 60%; pest or weed control at 250 g/ha (Lolium perenne (LOLPE); [15]): 80%; pest or weed control at 250 g/ha (Lolium perenne (LOLPE); [16]): 70%; pest or weed control at 250 g/ha (Avena fatua (AVEFA); [17]): 80%; pest or weed control at 250 g/ha (Avena fatua (AVEFA); [18]): 0%

Source: patent publication US10206394B2, “Herbicidal compounds” (Syngenta Participations AG, priority 2014, dated 2019)
